The record followed here is ChEMBL document CHEMBL3399955, “Synthesis of a new series of dithiocarbamates with effective human carbonic anhydrase inhibitory activity and antiglaucoma action” (Bioorg Med Chem, 2015).

For one test, the species on record is Homo sapiens. Put plainly: Reduction in intraocular pressure in glaucoma patient. Format: functional, Eye.
Regarding `CCN[C@H]1C[C@H](C)S(=O)(=O)c2sc(S(N)(=O)=O)cc21` [DORZOLAMIDE], the Activity was 4 mmHg.

Another test has as its target Carbonic anhydrase 9 (Homo sapiens, UniProt Q16790). As to the kind of experiment: Inhibition of human recombinant carbonic anhydrase 9 expressed in Escherichia coli pre-incubated for 15 mins by stopped-flow CO2 hydration assay.
Take `O=C(O)C1CCN(C(=S)S)CC1`: the inhibition constant Ki was determined as 0.0779 µM.
For the molecule `S=C(S)N[C@@H]1CN2CCC1CC2`, the Ki turned out to be 0.0824 µM.
With `OCCCNC(=S)S`, the Ki is 0.00091 µM.
On the same count and under the same terms, the value for `OCCCCCNC(=S)S` was 0.0026 µM; that for `O=C(CN1CCN(C(=S)S)CC1)NC1CCCCC1` was 0.0799 µM.
As for `S=C(S)NCCc1ccccc1`, the Ki is 0.0251 µM.
As for `O=C(O)C1CCCCN1C(=S)S` (centres undefined), the inhibitory constant (Ki) turned out to be 0.072 µM.
`CC(=O)NC1CCCN(C(=S)S)C1` (centres undefined): the inhibition constant (Ki) was found to be 0.0095 µM.
For `O=C(O)C1COCCN1C(=S)S` (centres undefined), the Ki came out at 0.0067 µM.
`O=C(O)[C@@H]1CCCN(C(=S)S)C1`: the inhibitory constant (Ki) amounted to 0.0413 µM.
As for `NS(=O)(=O)c1ccc(CCNC(=S)S)cc1`, the Ki was found to be 0.00091 µM.
For the molecule `CC1COCCN1C(=S)S` (centres undefined), the Ki was 0.0551 µM.
Same read-out and setting: the value for `S=C(S)N1CCCCC1` was 0.00092 µM.
The same measure, in the same setting: the value for `OCCCCNC(=S)S` was 0.00097 µM.
For `O=C(O)[C@H]1CCCN(C(=S)S)C1`, the Ki amounted to 0.0862 µM.
On to `CN(C)CCNC(=S)S`, for which the Ki turned out to be 0.0379 µM.
As for `S=C(S)N[C@H]1CN2CCC1CC2`, the Ki amounted to 0.0718 µM.
Take `O=C(O)C1CCCN(C(=S)S)C1` (centres undefined): the Ki was determined as 0.0671 µM.
In the case of `OC1CCCN(C(=S)S)C1` (centres undefined), the Ki came out at 0.0076 µM.
In the case of `S=C(S)NC1CN2CCC1CC2` (centres undefined), the Ki was 0.0935 µM.

For the next test, the species on record is Homo sapiens. Put plainly: Reduction in intraocular pressure in patient with open-angle glaucoma. Format: functional, Eye.
As to `CC(=O)Nc1nnc(S(N)(=O)=O)s1` [ACETAZOLAMIDE], the “inhibition (INH)” value came out at 25%.

The next test relates to Oryctolagus cuniculus. As to the kind of experiment: Antiglaucoma activity in New Zealand albino rabbit model of glaucoma assessed as reduction in intraocular pressure dosed as 2% eye drops immediately after injection of hypertonic saline measured 1 hr post dose. Format: functional.
For `CCN[C@H]1C[C@H](C)S(=O)(=O)c2sc(S(N)(=O)=O)cc21` [DORZOLAMIDE], the Activity is recorded as 4 mmHg.

Another test has as its system Oryctolagus cuniculus. As to the kind of experiment: Antiglaucoma activity in New Zealand albino rabbit model of glaucoma assessed as reduction in intraocular pressure dosed as 2% eye drops immediately after injection of hypertonic saline measured 2 hrs post dose. Format: functional.
With `CCN[C@H]1C[C@H](C)S(=O)(=O)c2sc(S(N)(=O)=O)cc21` [DORZOLAMIDE], the Activity worked out at 3 mmHg.

One may read the Ki as a dissociation constant, usually derived from enzyme kinetics or from competition with a known ligand.
